Like-named read-outs stand apart in the source and are kept apart here.
Assays:
[1] = target: T1, Protease, CTSG (Cathepsin G) (Homo sapiens, UniProt P08311); assay: Protease, CTSG (Cathepsin G) inhibition assay; format: biochemical; conditions: reference compound, concurrent run; read-out: Concurrent MIC IC50
T1 sequence (P08311 21-255): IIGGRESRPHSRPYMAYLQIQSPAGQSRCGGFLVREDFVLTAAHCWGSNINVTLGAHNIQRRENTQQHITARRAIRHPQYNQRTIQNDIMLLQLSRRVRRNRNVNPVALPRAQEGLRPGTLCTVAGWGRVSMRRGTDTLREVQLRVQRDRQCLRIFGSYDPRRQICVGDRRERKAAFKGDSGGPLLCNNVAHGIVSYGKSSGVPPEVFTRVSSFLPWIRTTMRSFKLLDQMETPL

[2] = target: T1, Protease, CTSG (Cathepsin G); conditions: reference compound, historical value; cited from earlier work

IC50 [1]: 1220 nM
Structure (SMILES): CC(C)C[C@H](NC(=O)[C@@H](NC(=O)N[C@@H](Cc1ccccc1)C(=O)O)[C@@H]1CCN=C(N)N1)C(=O)N[C@H](C=O)Cc1ccccc1 [Chumostatin]
IC50 [2]: 2100 nM
